Laboratory results: patent US20050265999A1, “Modulation of 5-HT2 receptors as a treatment for cardiovascular diseases” (Myogen, Inc., priority 2003, published 2005)

How the values were obtained:
[1] = system: primary rat neonatal cardiomyocytes; test: Immunofluorescence / morphology of cardiomyocyte hypertrophy in NRVM; assay type: cell-based; conditions: 1 μM, 48 h
Description: NRVM culture. For preparations of neonatal rat ventricular myocytes (NRVMs), hearts were removed from 10-20 newborn (1-2 days old) Sprague-Dawley rats. Isolated ventricles were pooled, minced and dispersed by three 20-min incubations at 37° C. in Ads buffer (116 mM NaCl, 20 mM HEPES, 10 mM NaH2PO4, 5.5 mM glucose, 5 mM KCl, 0.8 mM MgSO4, pH 7.4) containing collagenase Type II (65 units/ml, Worthington) and pancreatin (0.6 mg/ml, GibcoBRL). Dispersed cells were applied to a discontinuous gradient of 40.5% and 58.5% (v/v) Percoll (Amersham Biosciences), centrifuged, and myocytes collected from the interface layer. Myocyte preparations were pre-plated in Dulbecco's modified Eagle's medium (DMEM, Cellgro), supplemented with 10% (v/v) fetal bovine serum (FBS, HyClone), 4 mM L-glutamine and 1% penicillin/streptomycin for 1 hour at 37° C. to reduce fibroblast contamination, then plated at a density of 2.5×10^5 cells per well on 6-well tissue culture plates (or 10,000 cells/well on 96-well tissue culture plates) coated with a 0.2% (w/v) gelatin solution. After 24 hours in culture, myocyte preparations were transferred to serum-free maintenance medium (DMEM supplemented with 0.1% (v/v) Nutridoma (Roche), L-glutamine and penicillin/streptomycin). Where indicated, NRVM were treated with test compounds for a period of 48 h. […]

[2] = biological target: T1, 5-HT2C (Homo sapiens, UniProt P28335); test: Radioligand receptor binding assay; conditions: 10 μM compound, n=2
T1 sequence (P28335 33-458): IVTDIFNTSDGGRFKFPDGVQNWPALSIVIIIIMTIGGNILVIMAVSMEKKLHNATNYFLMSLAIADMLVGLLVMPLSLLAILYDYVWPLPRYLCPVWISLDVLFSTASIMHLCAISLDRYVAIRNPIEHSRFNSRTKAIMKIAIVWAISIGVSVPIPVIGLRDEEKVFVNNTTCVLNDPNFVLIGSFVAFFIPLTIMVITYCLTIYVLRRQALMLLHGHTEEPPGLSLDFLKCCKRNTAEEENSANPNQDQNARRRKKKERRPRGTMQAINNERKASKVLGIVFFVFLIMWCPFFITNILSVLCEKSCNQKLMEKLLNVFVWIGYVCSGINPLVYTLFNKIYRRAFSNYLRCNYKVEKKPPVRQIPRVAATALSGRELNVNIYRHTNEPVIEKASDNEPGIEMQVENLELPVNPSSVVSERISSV

[3] = system: neonatal rat ventricular myocytes (NRVM); test: Affymetrix gene expression screening of NRVM; assay type: cell-based; design: dose or concentration left out as unconfirmed
Description: Affymetrix screening. RNA was extracted from unstimulated NRVM and hypertrophic NRVM exposed to compound 18264 […] (Trizol Reagent, GibcoBRL). RNA samples were converted to biotin-labeled cRNA and hybridized to Rat expression arrays (Affymetrix GeneChip). Arrays were then washed, scanned and quantitated as per manufacturer's instructions.

[4] = system: MCIP1 exon 4 promoter luciferase reporter; test: High throughput MCIP1-luciferase reporter screen in H9c2 muscle cells; assay type: cell-based, rat; conditions: screen of 20,000 compounds
Description: A high throughput screen for small molecules that enhance MCIP1 expression in cardiac myocytes. The inventors set out to perform a high throughput screen of a combinatorial small molecule library for compounds capable of increasing MCIP1 expression in cultured H9c2 muscle cells. Toward that end, the inventors used a luciferase reporter gene controlled by the region upstream of exon 4 of the human MCIP1 gene (−874 to +30). This genomic region contains 15 NFAT binding sites and confers calcineurin responsiveness to MCIP1. Transcripts initiated from exon 4 encode a MCIP1 protein with a Mr=28 kD.

[5] = system: neonatal rat ventricular myocytes (NRVM); test: Total cellular protein (Coomassie dye-binding) in NRVM; assay type: cell-based; conditions: NRVM stimulated with compound alone
Description: NRVM culture. For preparations of neonatal rat ventricular myocytes (NRVMs), hearts were removed from 10-20 newborn (1-2 days old) Sprague-Dawley rats. Isolated ventricles were pooled, minced and dispersed by three 20-min incubations at 37° C. in Ads buffer (116 mM NaCl, 20 mM HEPES, 10 mM NaH2PO4, 5.5 mM glucose, 5 mM KCl, 0.8 mM MgSO4, pH 7.4) containing collagenase Type II (65 units/ml, Worthington) and pancreatin (0.6 mg/ml, GibcoBRL). Dispersed cells were applied to a discontinuous gradient of 40.5% and 58.5% (v/v) Percoll (Amersham Biosciences), centrifuged, and myocytes collected from the interface layer. […]
Hypertrophy and toxicity assays. Primary hypertrophy endpoints for NRVM included quantitation of: ANF secretion, total cellular protein and cell volume. ANF in media supernatants was quantitated by competitive ELISA using a monoclonal anti-ANF antibody (Biodesign) and a biotinylated ANF peptide (Phoenix Peptide). Total cellular protein was quantitated by standard Coomassie dye-binding assay; cells were lysed in protein assay reagent (BioRad) and absorbance at A595 was measured after 1 hour. […] After recovery by centrifugation, cell pellets were washed in PBS, resuspended in 10 ml IsoFlow electrolyte solution (Beckman-Coulter) and analyzed with a Z2 Coulter Particle Counter and Size Analyzer (Beckman-Coulter). […]

[6] = system: beta myosin heavy chain; test: Beta myosin heavy chain protein quantitation by cytoblot in NRVM; assay type: cell-based, rat; conditions: 1 μM, 48 h
Description: Beta myosin heavy chain protein quantitation by cytoblot. NRVM were plated overnight in 96-well plates. The next day, medium was replaced with serum-free maintenance medium for 4 hours, and test compounds added. Forty-eight hours later, wells were washed twice with […] PBS, aspirating between washes. Cells were fixed by adding […] methanol for 30 min. Methanol was aspirated and wells washed twice with […] PBS. Next, […] blocking solution (PBS+1% BSA) was added for 1 hr at room temperature. Blocking solution was aspirated and […] primary antibody solution added (β-myosin heavy chain hybridoma supernatant+1% BSA) for 1 hr at room temperature. Primary antibody solution was removed and wells washed three times with […] PBS+1% BSA. Wash was aspirated and […] secondary antibody solution added (1:500 dilution of goat […] HRP conjugate in PBS+1% BSA; Southern Biotech #4050-05) for 1 hr at room temperature. Secondary antibody solution was removed and wells washed three times with […] PBS. Wash was aspirated and […] luminol solution added (Pierce #34080). Plates were read in a 96-well luminometer (Packard Fusion).

Cc1c(-c2ccccc2)nc2sc3c(c2c1N)CCCC3 [Compound 18264, 3-Methyl-2-phenyl-5,6,7,8-tetrahydro-benzo[4,5]thieno[2,3-b]pyridin-4-ylamine]
induction of myocyte hypertrophy (enlargement, sarcomere assembly) [1]: extraordinarily potent inducer of myocyte hypertrophy | inhibition at 10 µM [2]: 42% | -Fold upreg. of Alpha skeletal actin [3]: 2.1 fold | -Fold upreg. of Atrial natriuretic factor [3]: 2.3 fold | -Fold upreg. of Brain natriuretic factor [3]: 4.1 fold | -Fold upreg. of Myosin heavy chain, embryonic [3]: 29 fold | stimulation of MCIP1-luciferase expression [4]: approximately two-fold | total cellular protein [5]: increased | expression of fetal beta isoform of myosin heavy chain [6]: significantly up-regulated
